# Reference: US11331299B2, “Medicinal use of serrulatane diterpenes” (The University of Sydney, priority 2016, dated 2022)
# pEC50, pIC50: −log10 of the molar value.
# What was measured:
# DNMT3b = DNMT3b (Homo sapiens, UniProt Q9UBC3); test: Epigenetic enzyme assay, DNA methyltransferases (DNMTs); assay type: biochemical; conditions: for inhibition at 10 µM: read-out: % Inhibition of Control Values
# DNMT3B/DNMT3L (h) = DNMT3B/DNMT3L (h) (Homo sapiens, UniProt Q9UBC3); test: as above; assay type: biochemical; conditions: for inhibition at 10 µM: read-out: % Inhibition of Control Values
# [1] = target: T1, Epidermal Growth Factor (EGF) (Homo sapiens, UniProt P00533); test: Epidermal Growth Factor (EGF) radio ligand binding; conditions: assay year 2015, read-out: % Control Response
# T1 construct: Human A431 cells; endogenous in cells; host or cells: A431 cells
# T1 sequence (P00533 25-1210): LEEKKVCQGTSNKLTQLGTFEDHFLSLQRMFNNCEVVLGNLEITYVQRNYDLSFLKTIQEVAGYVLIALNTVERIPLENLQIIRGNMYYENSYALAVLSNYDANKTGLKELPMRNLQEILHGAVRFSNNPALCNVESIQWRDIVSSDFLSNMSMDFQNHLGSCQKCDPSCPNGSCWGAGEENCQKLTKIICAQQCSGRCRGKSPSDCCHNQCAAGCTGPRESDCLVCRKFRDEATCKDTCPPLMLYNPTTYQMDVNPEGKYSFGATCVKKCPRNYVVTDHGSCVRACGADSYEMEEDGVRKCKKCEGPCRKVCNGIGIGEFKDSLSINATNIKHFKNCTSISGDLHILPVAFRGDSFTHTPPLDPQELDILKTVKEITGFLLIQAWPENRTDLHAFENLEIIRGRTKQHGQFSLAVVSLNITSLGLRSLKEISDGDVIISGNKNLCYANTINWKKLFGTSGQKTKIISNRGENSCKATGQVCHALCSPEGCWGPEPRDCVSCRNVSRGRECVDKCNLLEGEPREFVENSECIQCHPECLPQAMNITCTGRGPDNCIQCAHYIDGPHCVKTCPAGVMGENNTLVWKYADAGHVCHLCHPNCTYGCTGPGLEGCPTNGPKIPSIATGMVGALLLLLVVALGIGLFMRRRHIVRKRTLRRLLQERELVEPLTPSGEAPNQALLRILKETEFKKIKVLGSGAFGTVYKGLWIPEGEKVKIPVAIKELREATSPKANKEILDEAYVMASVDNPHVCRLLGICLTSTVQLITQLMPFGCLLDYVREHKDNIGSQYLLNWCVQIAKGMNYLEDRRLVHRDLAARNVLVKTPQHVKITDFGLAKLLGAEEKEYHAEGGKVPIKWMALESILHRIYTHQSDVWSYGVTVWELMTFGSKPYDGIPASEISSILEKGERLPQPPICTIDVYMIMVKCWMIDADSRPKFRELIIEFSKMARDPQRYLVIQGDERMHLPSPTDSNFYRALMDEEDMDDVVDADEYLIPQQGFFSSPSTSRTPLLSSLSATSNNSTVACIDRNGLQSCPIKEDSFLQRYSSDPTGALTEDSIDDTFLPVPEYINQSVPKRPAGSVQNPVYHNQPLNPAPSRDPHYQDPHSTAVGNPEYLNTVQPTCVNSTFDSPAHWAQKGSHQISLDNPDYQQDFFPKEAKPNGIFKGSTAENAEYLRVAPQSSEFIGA
# Method: (§1) The in vitro pharmacological studies were conducted by Eurofins PanLab (Taiwan) using the parameters shown in Table 13 with respect to appropriate literature references.
# Deacetylase, Histone 1 = target: T2, Deacetylase, Histone 1 (Homo sapiens, UniProt Q13547); test: Deacetylase, Histone 1 (PanLab); assay type: biochemical
# T2 construct: host or cells: Insect Sf9 cells
# T2 sequence (Q13547 whole entry): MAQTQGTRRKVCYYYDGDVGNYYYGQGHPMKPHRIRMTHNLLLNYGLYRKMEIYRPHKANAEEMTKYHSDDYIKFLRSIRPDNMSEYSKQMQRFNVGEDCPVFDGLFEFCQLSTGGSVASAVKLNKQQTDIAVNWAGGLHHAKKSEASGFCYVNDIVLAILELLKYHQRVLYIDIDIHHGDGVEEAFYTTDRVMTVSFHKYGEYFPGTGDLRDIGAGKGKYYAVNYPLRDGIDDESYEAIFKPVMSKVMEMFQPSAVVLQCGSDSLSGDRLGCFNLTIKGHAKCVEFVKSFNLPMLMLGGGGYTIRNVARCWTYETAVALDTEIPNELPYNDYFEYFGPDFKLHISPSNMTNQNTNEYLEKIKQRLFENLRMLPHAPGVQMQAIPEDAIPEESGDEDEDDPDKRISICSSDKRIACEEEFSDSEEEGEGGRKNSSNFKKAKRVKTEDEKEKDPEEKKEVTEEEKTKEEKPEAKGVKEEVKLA
# Method: as §1
# H3K79 me2 = test: Cell-based detection methyl modifications; conditions: read-out: % Inhibition of Control Values
# BRDT(1) (h) bromodomain = target: T3, BRDT(1) (h) bromodomain (Homo sapiens, UniProt Q58F21); test: Epigenetic binding assay, Bromodomain; conditions: read-out: % Inhibition of Control Specific Binding
# T3 construct: Bromodomain; Eurofins CEREP (France), contract laboratory
# JMJD2B (h) = target: T4, JMJD2B (h) (Homo sapiens, UniProt O94953); test: Epigenetic enzyme assay, Demethylases (KDMs); assay type: biochemical; conditions: for inhibition at 10 µM: read-out: % Inhibition of Control Values
# T4 sequence (O94953 1-1096): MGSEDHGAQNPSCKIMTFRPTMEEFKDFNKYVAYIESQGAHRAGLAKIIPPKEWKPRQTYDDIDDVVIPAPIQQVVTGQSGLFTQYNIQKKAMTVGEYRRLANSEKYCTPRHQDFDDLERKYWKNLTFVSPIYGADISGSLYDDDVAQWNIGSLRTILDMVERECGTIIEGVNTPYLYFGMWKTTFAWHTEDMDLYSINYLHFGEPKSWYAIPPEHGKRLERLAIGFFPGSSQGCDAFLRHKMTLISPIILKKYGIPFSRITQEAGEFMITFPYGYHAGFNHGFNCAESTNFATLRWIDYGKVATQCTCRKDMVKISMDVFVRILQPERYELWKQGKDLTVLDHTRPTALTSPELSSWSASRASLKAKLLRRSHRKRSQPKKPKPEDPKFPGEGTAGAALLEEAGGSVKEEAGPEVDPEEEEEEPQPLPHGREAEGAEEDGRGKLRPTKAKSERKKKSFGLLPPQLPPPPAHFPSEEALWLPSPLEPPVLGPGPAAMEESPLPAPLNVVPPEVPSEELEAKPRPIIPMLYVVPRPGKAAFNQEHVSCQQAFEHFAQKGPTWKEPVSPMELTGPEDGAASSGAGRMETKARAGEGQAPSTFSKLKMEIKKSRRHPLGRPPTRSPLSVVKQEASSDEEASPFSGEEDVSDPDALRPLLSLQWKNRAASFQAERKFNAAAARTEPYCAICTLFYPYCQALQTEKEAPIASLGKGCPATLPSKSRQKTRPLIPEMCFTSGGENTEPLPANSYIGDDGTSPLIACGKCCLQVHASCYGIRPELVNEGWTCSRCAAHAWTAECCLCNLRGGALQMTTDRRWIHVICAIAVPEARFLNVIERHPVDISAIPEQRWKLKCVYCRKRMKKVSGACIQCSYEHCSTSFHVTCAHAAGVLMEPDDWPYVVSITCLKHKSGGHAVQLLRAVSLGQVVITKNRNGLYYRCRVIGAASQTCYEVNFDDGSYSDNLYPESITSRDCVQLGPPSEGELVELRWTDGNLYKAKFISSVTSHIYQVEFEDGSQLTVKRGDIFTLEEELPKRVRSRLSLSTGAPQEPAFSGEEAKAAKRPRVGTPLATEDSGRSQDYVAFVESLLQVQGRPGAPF
# CBX1 (h) chromodomain = target: T5, CBX1 (h) chromodomain (Homo sapiens, UniProt P83916); test: Epigenetic binding assay, Chromodomain; conditions: read-out: % Inhibition of Control Specific Binding
# T5 construct: Recognition and specificity determinants of the human cbx chromodomains; Eurofins CEREP (France), contract laboratory
# T5 sequence (P83916 21-79 limits assumed): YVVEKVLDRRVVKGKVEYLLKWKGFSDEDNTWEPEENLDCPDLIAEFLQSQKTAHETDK
# MDA-MB-415 = test: OncoPanel cell proliferation assay (10-day); assay type: cell-based, human; conditions: for pEC50 / GI50 / pIC50: Homo sapiens, MDA-MB-415, Breast; for pEC50: read-out: Cell Count EC50; for GI50: read-out: Cell Count GI50; for pIC50: read-out: Cell Count IC50
# [2] = target: DAPK3/ZIP (substrate histone H3 full length) (Homo sapiens, UniProt O43293); test: Epigenetic enzyme assay, Kinases; assay type: biochemical; conditions: read-out: % Inhibition of Control Values
# Chain of DAPK3/ZIP (substrate histone H3 full length) (O43293 whole entry): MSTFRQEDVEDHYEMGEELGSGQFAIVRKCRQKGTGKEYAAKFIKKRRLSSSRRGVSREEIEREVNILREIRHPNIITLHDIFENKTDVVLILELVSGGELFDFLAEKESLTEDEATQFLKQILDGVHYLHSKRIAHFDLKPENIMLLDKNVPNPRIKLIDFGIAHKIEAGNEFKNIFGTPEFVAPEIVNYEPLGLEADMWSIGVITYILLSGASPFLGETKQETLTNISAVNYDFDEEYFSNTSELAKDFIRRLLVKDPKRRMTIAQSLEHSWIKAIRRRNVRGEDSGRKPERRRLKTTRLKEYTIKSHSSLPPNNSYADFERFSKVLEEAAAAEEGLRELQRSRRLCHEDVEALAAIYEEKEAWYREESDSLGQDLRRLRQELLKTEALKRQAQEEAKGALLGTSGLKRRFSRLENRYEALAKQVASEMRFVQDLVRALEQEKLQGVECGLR
# JARID1C (h) = JARID1C (h) (Homo sapiens, UniProt P41229); test: Epigenetic enzyme assay, Demethylases (KDMs); assay type: biochemical; conditions: read-out: % Inhibition of Control Values
# Chain of JARID1C (h) (P41229 whole entry): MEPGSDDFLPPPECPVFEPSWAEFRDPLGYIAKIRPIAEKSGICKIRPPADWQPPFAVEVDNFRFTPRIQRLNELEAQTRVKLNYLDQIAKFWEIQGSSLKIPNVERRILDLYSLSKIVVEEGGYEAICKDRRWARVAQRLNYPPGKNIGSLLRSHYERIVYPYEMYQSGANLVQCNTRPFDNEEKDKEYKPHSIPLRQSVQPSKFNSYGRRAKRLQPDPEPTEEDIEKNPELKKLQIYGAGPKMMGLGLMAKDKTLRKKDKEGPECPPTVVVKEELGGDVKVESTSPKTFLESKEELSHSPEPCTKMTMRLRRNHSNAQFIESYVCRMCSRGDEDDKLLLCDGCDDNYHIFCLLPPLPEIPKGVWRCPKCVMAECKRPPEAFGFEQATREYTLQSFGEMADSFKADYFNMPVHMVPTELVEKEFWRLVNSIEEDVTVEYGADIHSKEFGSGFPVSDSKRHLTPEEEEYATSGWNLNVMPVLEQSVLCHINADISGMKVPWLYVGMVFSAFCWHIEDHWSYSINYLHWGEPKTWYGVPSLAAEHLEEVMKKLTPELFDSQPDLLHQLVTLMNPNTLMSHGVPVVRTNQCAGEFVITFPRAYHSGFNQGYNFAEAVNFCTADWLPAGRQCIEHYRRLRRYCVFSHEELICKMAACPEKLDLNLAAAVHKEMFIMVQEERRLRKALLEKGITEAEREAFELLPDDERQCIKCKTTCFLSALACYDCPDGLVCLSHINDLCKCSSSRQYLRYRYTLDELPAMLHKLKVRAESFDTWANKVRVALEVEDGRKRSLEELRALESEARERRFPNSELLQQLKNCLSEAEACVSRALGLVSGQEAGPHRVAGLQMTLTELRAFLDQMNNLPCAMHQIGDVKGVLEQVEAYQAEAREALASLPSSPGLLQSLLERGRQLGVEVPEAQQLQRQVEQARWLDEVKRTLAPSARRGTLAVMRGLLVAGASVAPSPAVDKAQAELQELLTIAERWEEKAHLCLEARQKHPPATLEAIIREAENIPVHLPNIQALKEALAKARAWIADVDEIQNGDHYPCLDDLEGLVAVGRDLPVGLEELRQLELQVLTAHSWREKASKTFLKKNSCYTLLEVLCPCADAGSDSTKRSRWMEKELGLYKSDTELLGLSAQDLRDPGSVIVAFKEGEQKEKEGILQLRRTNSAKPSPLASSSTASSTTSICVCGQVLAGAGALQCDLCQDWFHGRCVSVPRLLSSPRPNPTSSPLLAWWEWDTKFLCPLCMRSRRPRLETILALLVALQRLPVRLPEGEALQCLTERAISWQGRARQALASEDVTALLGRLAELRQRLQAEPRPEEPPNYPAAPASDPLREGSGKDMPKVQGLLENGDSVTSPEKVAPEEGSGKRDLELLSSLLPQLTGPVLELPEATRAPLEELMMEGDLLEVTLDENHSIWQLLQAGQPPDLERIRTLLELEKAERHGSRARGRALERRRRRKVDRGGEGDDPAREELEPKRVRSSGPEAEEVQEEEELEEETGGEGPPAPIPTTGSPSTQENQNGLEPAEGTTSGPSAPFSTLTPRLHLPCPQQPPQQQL
# [3] = target: PKBbeta/AKT2(h) (substrate histone H3 full length) (Homo sapiens, UniProt P31751); test: Epigenetic enzyme assay, Kinases; assay type: biochemical; conditions: read-out: % Inhibition of Control Values
# Chain of PKBbeta/AKT2(h) (substrate histone H3 full length) (P31751 whole entry): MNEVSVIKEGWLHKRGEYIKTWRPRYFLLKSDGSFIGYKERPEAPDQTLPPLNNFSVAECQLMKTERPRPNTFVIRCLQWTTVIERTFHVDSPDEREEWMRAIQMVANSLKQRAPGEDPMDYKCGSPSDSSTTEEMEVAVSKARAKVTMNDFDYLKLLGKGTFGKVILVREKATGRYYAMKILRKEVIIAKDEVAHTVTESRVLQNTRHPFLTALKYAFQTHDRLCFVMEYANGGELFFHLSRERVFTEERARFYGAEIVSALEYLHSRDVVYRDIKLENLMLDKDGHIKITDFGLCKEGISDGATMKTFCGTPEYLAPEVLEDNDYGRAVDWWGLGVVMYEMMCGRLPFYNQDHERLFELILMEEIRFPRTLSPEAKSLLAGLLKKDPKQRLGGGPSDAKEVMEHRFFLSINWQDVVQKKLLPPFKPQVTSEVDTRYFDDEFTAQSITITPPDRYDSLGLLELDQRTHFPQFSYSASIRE
SMILES,inhibition at 10 µM (DNMT3b),inhibition at 10 µM (DNMT3B/DNMT3L (h)),remaining activity at 10 µM [1],"% control response at 10 µM (Deacetylase, Histone 1; assay year 2014)","% control response at 10 µM (Deacetylase, Histone 1; assay year 2015)",inhibition at 10 µM (H3K79 me2),inhibition at 10 µM (BRDT(1) (h) bromodomain),inhibition at 10 µM (JMJD2B (h); 10 μM),inhibition at 10 µM (CBX1 (h) chromodomain),pEC50 (MDA-MB-415),GI50 (MDA-MB-415),pIC50 (MDA-MB-415),inhibition at 10 µM [2],inhibition at 10 µM (JARID1C (h)),inhibition at 10 µM [3],also measured
"CC(C)=CCC[C@H](CO)[C@@H]1CC[C@@H](C)c2c1cc(C)c(O)c2O [Compound 1, 7,8,18-trihydroxyserrulat-14-ene]",-3%,23%,-8%,17%,-27%,-2%,43%,65%,15%,5.99,1 µM,5.99,4%,49%,13%,"% Inhibition of Control Values (JMJD2B (h); 10 μM): significant inhibitory activity; pIC50 (JMJD2B (h); Table 11, inhibition/concentration-response curve, read-out: IC50): 4.92; Relative cell count (%) Mean (MDA-MB-415; 3.00E+00 microM): 1.3%; Relative cell count (%) Mean (MDA-MB-415; 3.00E+01 microM): 0.2%; Relative cell count (%) Mean (MDA-MB-415; 3.01E−01 microM): 100.2%; Relative cell count (%) Mean (MDA-MB-415; 3.01E−02 microM): 93.4%; Relative cell count (%) Mean (MDA-MB-415; 3.02E−03 microM): 100.0%; Relative cell count (%) Mean (MDA-MB-415; 9.49E+00 microM): 0.3%; Relative cell count (%) Mean (MDA-MB-415; 9.51E−01 microM): 62.3%; Relative cell count (%) Mean (MDA-MB-415; 9.52E−02 microM): 98.1%; Relative cell count (%) Mean (MDA-MB-415; 9.53E−03 microM): 98.0%; Relative cell count (%) Mean (MDA-MB-415; 9.55E−04 microM): 90.2%"
"CC(C)=CCC[C@@H]1COc2c(C)cc(O)c3c2[C@H]1CC[C@H]3C [Compound 3, 5,18-epoxy-8-hydroxyserrulat-14-ene]",-4%,-20%,4%,,-26%,-5%,29%,8%,-1%,,,,8%,25%,12%,
Nc1ncnc2c1ncn2[C@@H]1O[C@H](CSCC[C@H](N)C(=O)O)[C@@H](O)[C@H]1O [SAH],,,,,,,,,,,,,,,,pIC50 (DNMT3b; read-out: Reference IC50): 7.03; pIC50 (DNMT3B/DNMT3L (h); read-out: Reference IC50): 7.35
"CC(C)=CCC[C@H](C)[C@@H]1CC[C@@H](C)c2c1cc(C)c(O)c2O [Compound 4, 7,8-dihydroxyserrulat-14-ene]",,,,,,,,,,4.55,27.4 µM,4.55,,,,
"CC(C)=CCC[C@@H]1C(O)Oc2c(C)cc(O)c3c2[C@H]1CC[C@H]3C (stereo partly shown) [Compound 2, 5,18-epoxyserrulat-14-en-8,18-diol]",-17%,27%,-9%,23%,-18%,-16%,23%,16%,0%,4.94,10.8 µM,4.94,9%,-13%,11%,
